Measured values reported in patent US10072051B2, “Anti-inflammatory lipopeptide and preparing method and application thereof” (EAST CHINA NORMAL UNIVERSITY, priority 2012, dated 2018).
“Also recorded” adds a separate entry of the source.

Assays:
Format in all cases: cell-based
NHEKs = assay: poly(I:C)-induced TNF-α and IL-6 expression in NHEKs, real-time RT-PCR
Procedure: NHEKs were seeded in 24-well plates to grow to 70˜80% confluence, 2 ug/ml poly(I:C) were added. Different concentrations of the lipopeptide as Formula (1) in Example 1 were used to treat NHEKs. After 24 h, total RNA was extracted and cDNA was generated to detect the TNF-α and IL-6 expression by using real-time RT-PCR. […]

keratinocytes (NHEK) = assay: OVA-stimulated keratinocytes (NHEK), real-time RT-PCR; settings: NHEKs treated with PPARγ inhibitor
Procedure: To mimics the condition of atopic dermatitis keratinocytes was stimulated by ovalbumin (OVA). To test the inhibitory effect of the lipopeptide on inflammatory response in atopic dermatitis, PBS, OVA, lipopeptide, lipopeptide plus OVA were used to stimulate keratinocytes (NHEK) and RNA was extracted after 24-hour stimulation. The expression of TNF-α and IL-6 was analyzed by real-time RT-PCR.

β-catenin = β-catenin translocation into the nucleus in NHEKs; settings: LiCl, nucleocytoplasmic separation
p65 [1] = assay: p65 phosphorylation in NHEKs, Western blot; settings: poly(I:C) alone, 4 hours and 12 hours
Procedure: NHEKs were treated with PBS, poly(I:C), lipopeptide, poly(I:C) with lipopeptide for 4 hours or 12 hours. And then RIPA lysate was added to lyse the cell. The protein concentration was detected by using BCA protein assay kit, and 40 ug of proteins were separated by SDS-PAGE. The effects of the lipopeptide on p65 phosphorylation were detected by Western blot.

p65 [2] = assay: p65 translocation into the nucleus in NHEKs (immunofluorescence, Western blot of nuclear proteins); settings: poly(I:C) alone; for p65 translocation into the nucleus: immunofluorescence
Procedure: NHEKs were treated with PBS or poly(I:C) for 4 hours, and fixed with formaldehyde for 15 min followed by adding ice-cold 0.25% TritonX-100 and hydrogen peroxide. Cells were incubated with anti-p65 antibody at 4° C. for overnight after blocked with BSA for 0.5 hour. Next day, the cells were incubated with the second antibody (FITC-goat anti Rabbit IgG) and visualized under the microscope.
NHEKs were treated with PBS, lipopeptide, poly(I:C) with or without lipopeptide for 12 hours, and fixed with formaldehyde for 15 min followed by adding ice-cold 0.25% TritonX-100 and hydrogen peroxide. Cells were stained with anti-p65 antibody for overnight after blocked with BSA for 0.5 h. Then the cells were incubated with the second antibody (FITC-goat anti Rabbit IgG) and visualized under the microscope.
NHEKs were treated with PBS, poly(I:C), lipopeptide, poly(I:C) with lipopeptide for 12 hours. Proteins from nucleus were isolated and separated by PAGE. The p65 in the nucleus was detected by Western blot. […] Thus the lipopeptide has no effect on poly(I:C)-induced p65 translocation into the nucleus.

PPAR-γ and p65 = assay: interaction between PPAR-γ and p65 in NHEKs, co-immunoprecipitation; settings: poly(I:C) 4 hours or 12 hours, immunoprecipitation with p65 antibody
Procedure: Example 4 illustrates that poly(I:C) can induce p65 phosphorylation and translocation, and poly(I:C) induces the inflammatory response through PPAR-γ. The aim of Example 5 is to illustrate the interaction between the translocated p65 and PPAR-γ in the nucleus. NHEKs were treated with poly(I:C) for 4 hours or 12 hours. Whole-cell extracts were prepared by using lysis buffer containing NP40 and incubated with the p65 antibody at 4° C. for overnight. Protein AG beads were added and incubated at 4° C. for 1-2 hours. Beads were then washed twice with washing buffer. The immunoprecipitates were eluted with 20 ul 2× sodium dodecyl sulfate (SDS) loading buffer and separated by PAGE. The proteins were transferred to nitrocellulose membrane and probed with PPAR-γ antibody.

[3] = NHEKs treated with poly(I:C) alone, 24 h

## O=C(Nc1ccccc1)c1cc([N+](=O)[O-])ccc1Cl [GW9662]
NHEKs; NHEKs, 24 h
  expression of IL-6 induced by poly(I:C): significantly inhibited
  expression of TNF-α induced by poly(I:C): significantly inhibited
Keratinocytes (NHEK)
  OVA-induced expression of inflammatory factor: significantly decreased

## [Cl-].[Li+] [LiCl]
NHEKs; NHEKs, 24 hours
  poly(I:C)-induced inflammatory response: inhibits
β-catenin
  β-catenin translocation: induces

## N.S=C(S)N1CCCC1 [PDTC]
NHEKs; NHEKs, 24 h
  expression of IL-6 induced by poly(I:C): inhibited
  expression of TNF-α induced by poly(I:C): inhibited

## poly(I:C)
NHEKs; [3]
  IL-6 expression: dramatically induces; also recorded: dramatically increases
  TNF-α expression: dramatically induces; also recorded: dramatically increases
p65 [1]
  p65 phosphorylation: significantly induces
p65 [2]; 4 hours
  p65 translocation into the nucleus: obviously induces
p65 [2]; 12 hours, Western blot
  level of p65 in the nucleus: significantly increases
p65 [2]; 12 hours
  p65 translocation into the nucleus: obviously induces
PPAR-γ and p65
  interaction between PPAR-γ and P65: significantly induces
